Measured values published in patent US8183270B2, “Insecticidal N-substituted (2-substituted-1,3-thiazol)alkyl sulfoximines” (Dow AgroSciences, LLC, priority 2006, dated 2012).

Legend:
[1] = tested on: cotton aphid (Aphis gossypii); test: Insecticidal test for cotton aphid in foliar spray assay; format: in vivo; conditions: foliar spray on squash cotyledons, 3 days after treatment, Corrected % Control (Abbott)
Procedure: The compounds identified in the foregoing examples (compounds 1-5) and in Table 1 (compounds 6-18) were tested against cotton aphid using procedures described hereinafter. Insecticidal Test for Cotton Aphid (Aphis gossypii) in Foliar Spray Assay Squash with fully expanded cotyledon leaves were trimmed to one cotyledon per plant and infested with cotton aphid (wingless adult and nymph) 1 day prior to chemical application. Each plant was examined before chemical application to ensure proper infestation (ca. 30-70 aphids per plant). Compounds (2 mg) were dissolved in 2 ml of acetone:methanol (1:1) solvent, forming stock solutions of 1000 ppm. The stock solutions were diluted 5× with 0.025% Tween 20 in H2O to obtain the highest test solution at 200 ppm. A lower test concentration (50 ppm) was prepared by making sequential a 4× dilution from the 200 ppm solution with a diluent consisting 80 parts of 0.025% Tween 20 in H2O and 20 parts of acetone:methanol (1:1). A hand-held Devilbiss sprayer was used to apply the spray solutions until runoff to both sides of the squash cotyledon leaves. Four plants (4 replications) were used for each concentration of each compound. Reference plants (solvent check) were sprayed with the diluent only. Treated plants were held in a holding room for 3 days at approximately 23° C. and 40% RH before the number of live aphids on each plant was recorded. Insecticidal activity was measured by Corrected % Control using Abbott's correction formula and the values for the lower test concentrations are presented in Table 1: Corrected % Control=100*(X−Y)/X • where X=No. of live aphids on solvent check plants • Y=No. of live aphids on treated plants CA 200 refers to % control at 200 ppm against cotton aphid in foliar spray tests, CA 50 refers to % control at 50 ppm against cotton aphid in foliar spray tests, In each case of Table 2 the rating scale is as follows: […]

melting point [°C] | SMILES | CA 50 (% control at 50 ppm against cotton aphid in foliar spray tests) [1] | CA 200 (% control at 200 ppm against cotton aphid in foliar spray tests) [1]
123 to 124 | CS(=O)(Cc1cnc(C(F)(F)F)s1)=NC#N (stereo not drawn) [Compound 1, Methyl(oxido){[2-(trifluoromethyl)-1,3-thiazol-5-yl]methyl}-λ^4-sulfanylidenecyanamide] | A (90-100) | A (90-100)
 | CC(C)(c1cnc(C(F)(F)F)s1)S(C)(=O)=NC#N (stereo not drawn) [Compound 2, Methyl(oxido){1-methyl-1-[2-(trifluoromethyl)-1,3-thiazol-5-yl]ethyl}-λ^4-sulfanylidenecyanamide] | C (70-79) | A (90-100)
 | CC(c1cnc(C(F)(F)F)s1)S(C)(=O)=NC#N (stereo not drawn) [Compound 3, Methyl(oxido){1-[2-(trifluoromethyl)-1,3-thiazol-5-yl]ethyl}-λ^4-sulfanylidenecyanamide] | A (90-100) | A (90-100)
 | N#CN=S1(=O)CCCC1Cc1cnc(C(F)(F)F)s1 (stereo not drawn) [Compound 4, 1-Oxo-2-(2-trifluoromethyl-thiazol-5-ylmethyl)-tetrahydro-1-λ^6-thiophen-1-ylidene-cyanamide] | A (90-100) | A (90-100)
66 to 68 | CS(=O)(Cc1csc(C(F)(F)F)n1)=NC#N (stereo not drawn) [Compound 5, Methyl(oxido){[2-(trifluoromethyl)-1,3-thiazol-4-yl]methyl}-λ^4-sulfanylidenecyanamide] | E (50-59) | C (70-79)
